Laboratory results reported in US20060100264A1, “3,3'-Diindolylmethane immune activating compositions” (priority 2004, published 2006).

What was measured:
[1] = system: OAS-Luc reporter (promoter and 5′-flanking region of p69-OAS); experiment: OAS-Luc luciferase reporter in transiently transfected MCF-7 cells; type: cell-based, human; settings: 24 h treatment
Description: (§1) In a further experiment to examine whether the inducing effects of DIM are at the transcriptional level, the effect of DIM on activities of two luciferase reporter constructs, OAS-Luc (12) and 4GAS-Luc (13) was examined. OAS-Luc contains the promoter and 5′-flanking region (−972) of p69-OAS and GAS-Luc contains four repeats of the consensus GAS element. MCF-7 cells transiently transfected with these reporter constructs were treated with IFNγ, DIM, or a combination of both for 24 h. […] IFNγ induced transcriptional activity of this reporter in a concentration dependent manner to a maximum of about 1.8 fold, which is less than the response of the endogenous gene of about 5.0 fold. In marked contrast to the maximum effects of combined treatments of the inducers on endogenous gene expression (nearly 12-fold increase compared to vehicle treated cells), the reporter gene construct responded with less than a 3-fold increase over the controls.

[2] = system: 4GAS-Luc reporter (four repeats of the consensus GAS element); experiment: 4GAS-Luc luciferase reporter in transiently transfected MCF-7 cells; type: cell-based, human; settings: DIM 50 μM, IFNγ concentration dependent, maximum
Description: as §1
Thus, treatment with DIM (50 μM) by itself again produced a 2 to 3-fold increase in activity of this reporter. IFNγ treatments, however, produced a robust concentration dependent increase in reporter activity to approximately 40-fold induction compared to vehicle treated controls. […]

GAS element = experiment: Electrophoretic gel mobility shift assay, STAT1 binding to GAS element; type: cell-based, human; settings: DIM pretreatment for various times, IFNγ 30 min
Description: An electrophoretic gel mobility shift assay was used to verify that the phosphorylated STAT1 was effectively activated to a dimer that could bind to the GAS element. The ^32P-labeled DNA probe containing a GAS sequence was incubated with nuclear extracts from cells pretreated with DIM for various times as indicated, and with IFNγ for 30 min. […] When samples were incubated with an antibody specific to STAT1, the band was super-shifted, confirming the identity of the protein binding to the labeled GAS probe.

MCF-7 cells [3] = experiment: Cell proliferation over a 4-day treatment period; type: cell-based, human
Description: Functional consequences of the synergistic effects of DIM and IFNγ on gene expression were examined at the level of proliferation rates. Cell proliferation was measured over a 4-day treatment period with treatments with DIM, IFNγ, or both substances, and compared to a DMSO control. With heat-treated serum, IFNγ alone reduced cell proliferation by as much as 70% compared to controls. DIM treatments reduced proliferation by as much as 60%. […] These effects were accompanied by morphological changes characteristic of apoptosis.

MCF-7 cells [4] = experiment: Flow cytometry of cell cycling (G1 phase); type: cell-based, human; settings: up to 3 days; control approximately 50% in G1
From the text: Flow cytometry was used to determine the effects of DIM and IFNγ on cell cycling. […] In control groups approximately 50% of the cells were in G1. Treatment with IFNγ alone caused a small progressive increase in G1 blocked cells of up to 10% above the DMSO control, after 3 days.

MHC-I complex = experiment: Flow cytometry of cell surface MHC-I expression (FITC-conjugated HLA-ABC antibody); type: cell-based, human
Description: Induced expression of the MHC-I complex is a well-established and important down-stream target of IFNγ-mediated signal transduction. To examine further the possible synergistic effects of DIM on a significant metabolic product of IFNγ signaling, we tested the effects of co-treatment with DIM on IFNγ induced expression of MHC-I complex in MCF-7 cells.
Flow cytometry analysis of cell surface MHC-I expression was conducted using FITC-conjugated HLA-ABC antibody. In an initial control experiment, cultured MCF-7 cells were pre-treated with 30 μM DIM for 48 hours and then with or without 10 ng/mL IFNγ for another 16 hours. […] In a subsequent experiment in which cells were treated with a range of IFNγ concentrations and analyzed with the anti-MHC-I antibody, a strong signal indicative of IFNγ-induced MHC-I expression was detectable at 0.1 ng/mL and appeared to plateau at 10 ng/mL. In cells treated with vehicle control only, MHC-I expression was not detected in greater than 99% of cells.
Exposure to DIM of cells treated with 10 ng/mL of IFNγ, about 95% of which expressed MHC-I, produced a strong time dependent increase in MFV from 76.04 to 131.41. […] As expected, addition of an IFNγ blocking antibody into the medium before the treatments abrogated the inducing effects of co-treatments of IFNγ and DIM on MHC-I expression, confirming the requirement of the cytokine for the observed effects.

MHC-II = MHC-II expression in MCF-7 cells; type: cell-based, human
From the text: In an analogous further experiment, we observed no effect of DIM or IFNγ on MHC-II expression in the MCF-7 cells.

[5] = system: HLA-A, HLA-B, HLA-C, β-microtubulin, TAP1 and TAP2; experiment: RT-PCR of MHC-I components and transporters in MCF-7 cells; type: cell-based, human
From the text: RT-PCR was used to examine the expression of the four major components of human MHC-I, including HLA-A, HLA-B, HLA-C, and β-microtubulin, as well as two important associated transporters, TAP1 and TAP2. […] As expected, the expressions of these genes were increased 2-8 fold by treatment with IFNγ.

IFNGR1 protein = settings: previous studies (ref 27), cited from earlier work
[6] = system: DMBA-induced mammary tumors; settings: single oral dose prior to carcinogen, rats; cited from earlier work

| Compound | Maximum induction of OAS-Luc reporter [1] | Induction of 4GAS-Luc reporter activity compared to vehicle treated controls [2] | Band-shift of 32P-labeled GAS probe with nuclear extracts (GAS element) | Reduction of cell proliferation compared to controls (MCF-7 cells [3]; 4-day treatment, heat-treated serum) [%] | Effect on proliferation of cells grown in unheated serum (MCF-7 cells [3]; unheated serum) | Increase in G1 blocked cells above the DMSO control (MCF-7 cells [4]) | Percentage of MHC-I positive cells (MHC-I complex; 0.1 ng/mL IFNγ, without or with 30 μM DIM pretreatment for 48 h) [%] | MHC-I expression/cell (MFV) (MHC-I complex; 10 ng/mL IFNγ, without or with exposure to DIM) | Cells which expressed MHC-I (MHC-I complex; 10 ng/mL of IFNγ) | IFNγ concentration at which MHC-I signal appeared to plateau (MHC-I complex; MCF-7 cells) [ng/mL] | IFNγ concentration at which induced MHC-I expression was detectable (MHC-I complex; MCF-7 cells) [ng/mL] | Effect on MHC-II expression (MHC-II) | Expression levels of the six genes (MHC-I components, TAP1, TAP2) above vehicle/background [5] | IFNGR1 receptor expression increase (IFNGR1 protein; 24 hours of treatment with I3C) | Maximum level of IFNGR1 protein induction (IFNGR1 protein; I3C) | Time at which maximum IFNGR1 protein induction was reached (IFNGR1 protein; I3C) | Reduction of incidence and multiplicity of DMBA-induced mammary tumors [6] |
| --- | --- | --- | --- | --- | --- | --- | --- | --- | --- | --- | --- | --- | --- | --- | --- | --- | --- |
| IFNγ: Type II IFN, interferon-γ or the immune interferon, a cytokine | about 1.8 fold | approximately 40 fold | produced a band-shift | ≤ 70 | no significant effect | up to 10% | 8.11 | 76.04 | about 95% | 10 | 0.1 | no effect | 2-8 fold |  |  |  |  |
| OCc1c[nH]c2ccccc12 [I3C, indole-3-carbinol] |  |  |  |  |  |  |  |  |  |  |  |  |  | about 3 fold | about 7 fold | about 48 hours | 70-80% |
